Measurements from patent US5252495A, “Immunoassay for physostigmine” (priority 1992, dated 1993).
Like-named read-outs stand apart in the source and are kept apart here.

Assay: Physostigmine pharmacokinetics and tissue concentrations in rats after intramuscular administration
Format: in vivo, Male Sprague-Dawley rats
Settings: 0.3 mg/kg intramuscular; for concentration at 0.5 h: 30 min; for concentration at 0.75 h: 45 min; for concentration at 1 h: 60 min; for concentration at 1.5 h: 90 min; for concentration at 2 h: 120 min
Method: To study the pharmakinetics of physostigmine and validate the RIA and the antibody specificity of the present invention, rat studies were conducted. Male Sprague-Dawley rats weighing approximately 500 grams were housed two per cage at 23° C. with a twelve hour on-off light cycle. The animals were given food and water ad libitum. After sixty days, food was withheld for twelve hours. Physostigmine, comprised of a physostigmine base dissolved in a small volume of dilute hydrochloric acid and then diluted with phosphate buffered saline, with the pH of the solution adjusted to 6.0 was administered (0.3 mg. of the physostigmine solution/Kg) intramuscularly to the rats. Groups of three animals were sacrificed by using inhalation anesthetic, Fluothane (0.01% thymol, w/w; and 0.00025% ammonia, w/w) Ayerst Laboratories, New York, […] Blood, collected via heart puncture, and tissue samples were taken. Brain, fat, heart, muscle and spleen were removed and frozen on dry ice immediately. On the date of analysis the plasma and tissue samples were thawed. The tissues were weighed and homogenized with an equal volume of cold solution of 10 mM EDTA, 150 mM NaCl and 0.5% triton X-100, pH 7.4. The suspension Was centrifuged at 15,000×g in a Sorvall RC-5B centrifuge (Dupont) for 30 min at 4° C. The supernatent was collected and the pellet was Washed and centrifuged. The supernatants were combined and filtered through 1 um pore size filters (RC 60, 9 mm diameter from Schleicher and Schuell Inc., Keene, N.H.) and 100 ul of the filtrate was injected into the HPLC column.
The blood and tissue samples were used to determine the concentration of physostigmine as a function of time. FIG. 3 gives the physostigmine level in the plasma of three male rats for each time interval as determined by the RIA of the present invention, while Table 4 presents the concentration of physostigmine in various organs as a function of time.

[1] = rat, brain, im, read-out: Tissue concentration of physostigmine, Brain
[2] = rat, fat, im, read-out: Tissue concentration of physostigmine, Fat
[3] = rat, heart, im, read-out: Tissue concentration of physostigmine, Heart
[4] = rat, muscle, im, read-out: Tissue concentration of physostigmine, Muscle
[5] = rat, spleen, im, read-out: Tissue concentration of physostigmine, Spleen

CNC(=O)Oc1ccc2c(c1)[C@]1(C)CCN(C)[C@@H]1N2C [Physostigmine, physostigmine]
Tissue concentration of physostigmine, Brain (180 min): 0.00 ng/g
Tmax (im, rat, spleen, read-out: time during which spleen levels continued to increase (converted)): 20 min
estimated plasma half-life during the rapid decline phase (rat): approximately 15 min
time until present in all of the tissues studied (rat): ≤ 2.5 min
tissue distribution (rat): rapidly distributed to central as well as peripheral tissues
tissues with highest tissue concentrations (rat): heart and spleen
concentration at 2.5 min [1]: 331 ng/g
concentration at 5 min [1]: 297 ng/g
concentration at 10 min [1]: 292 ng/g
concentration at 20 min [1]: 198 ng/g
concentration at 0.5 h [1]: 173 ng/g
concentration at 0.75 h [1]: 45.6 ng/g
concentration at 1 h [1]: 15.7 ng/g
concentration at 1.5 h [1]: 3.05 ng/g
concentration at 2 h [1]: 0.53 ng/g
concentration at 2.5 min [2]: 230 ng/g
concentration at 5 min [2]: 533 ng/g
concentration at 10 min [2]: 398 ng/g
concentration at 20 min [2]: 360 ng/g
concentration at 0.5 h [2]: 292 ng/g
concentration at 0.75 h [2]: 95 ng/g
concentration at 1 h [2]: 86.3 ng/g
concentration at 1.5 h [2]: 80.5 ng/g
concentration at 2 h [2]: 58.6 ng/g
concentration at 3 h (rat, fat, im, 180 min, read-out: Tissue concentration of physostigmine, Fat): 10.3 ng/g
concentration at 2.5 min [3]: 332 ng/g
concentration at 5 min [3]: 785 ng/g
concentration at 20 min [3]: 371 ng/g
concentration at 0.5 h [3]: 213 ng/g
concentration at 0.75 h [3]: 79.2 ng/g
concentration at 1 h [3]: 78.5 ng/g
concentration at 1.5 h [3]: 66.9 ng/g
concentration at 2 h [3]: 47.2 ng/g
concentration at 3 h (rat, heart, im, 180 min, read-out: Tissue concentration of physostigmine, Heart): 48.7 ng/g
concentration at 2.5 min [4]: 321 ng/g
concentration at 5 min [4]: 225 ng/g
concentration at 10 min [4]: 540 ng/g
concentration at 20 min [4]: 323 ng/g
concentration at 0.5 h [4]: 243 ng/g
concentration at 0.75 h [4]: 241 ng/g
concentration at 1 h [4]: 86 ng/g
concentration at 1.5 h [4]: 70 ng/g
concentration at 2 h [4]: 35 ng/g
concentration at 3 h (rat, muscle, im, 180 min, read-out: Tissue concentration of physostigmine, Muscle): 37.5 ng/g
concentration at 2.5 min [5]: 322 ng/g
concentration at 5 min [5]: 627 ng/g
concentration at 10 min [5]: 955 ng/g
concentration at 20 min [5]: 986 ng/g
concentration at 0.5 h [5]: 912 ng/g
concentration at 0.75 h [5]: 835 ng/g
concentration at 1 h [5]: 540 ng/g
concentration at 1.5 h [5]: 358 ng/g
concentration at 2 h [5]: 227 ng/g
concentration at 3 h (rat, spleen, im, 180 min, read-out: Tissue concentration of physostigmine, Spleen): 55.6 ng/g
